{"source": "patent US20250130239A1", "about": "“PROTEIN DEGRADER” (University of Dundee, priority 2021, published 2025)", "key": {"[1]": {"target": "T1, BRD4 (O60885), BromoTag N-term (Homo sapiens, UniProt O60885+P40337, L387A)", "T1 construct": "comprising residues 368-440 of human Brd4; expressed in transfected cells", "T1 sequence (P40337 whole entry, other chains not shown, the tested form may be a part)": "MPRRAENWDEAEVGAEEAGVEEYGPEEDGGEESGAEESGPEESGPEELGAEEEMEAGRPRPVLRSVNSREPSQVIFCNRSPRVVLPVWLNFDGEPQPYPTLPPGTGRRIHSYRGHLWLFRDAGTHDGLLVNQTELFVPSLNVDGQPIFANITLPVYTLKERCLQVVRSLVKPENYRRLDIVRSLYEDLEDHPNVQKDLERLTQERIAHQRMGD", "assay": "Degradation of BromoTag'ed BRD4 by AGB1", "assay_type": "cell-based", "excerpt": "Degradation of a variety of target proteins. […] We performed CRISPR knock-in of the BromoTag, as described, into the endogenous loci of five additional proteins. […] The target proteins of Table 6 are all different, are all known to have different cellular roles and function, intracellular expression, and distinctive turnover rates within cells."}, "[2]": {"assay": "Plasma stability", "assay_type": "in vitro ADME", "conditions": "mouse plasma, 37° C., over 1 h", "experimental": "Plasma Stability. Plasma stability studies were outsourced and undertaken by Shanghai ChemPartner Co., Ltd. Buffer preparation: A solution of 0.05 M sodium phosphate and 0.07 M NaCl buffer at pH 7.4 was made by dissolving 14.505 g/L Na2HPO4·12H2O, 1.483 g/L NaH2PO4·2H2O and 4.095 g/L NaCl in deionized water and the pH adjusted with phosphoric acid. Plasma preparation: Frozen mouse plasma was thawed by placing at 37° C. quickly. The thawed plasma was centrifuged at 3,000 rpm for 8 min to remove clots and the supernatant was pooled to be used as the plasma in the experiment. The plasma (pH 7.4-8.0) was stored on ice until used. […] Plasma and spiking solutions were pre-warmed at 37° C. for 5 min, then 10 μL of pre-warmed spiking solution B were added into the wells designated for all the time points (5, 15, 30, 45, 60 min). For 0-min, 400 μL of acetonitrile containing internal standards (Imipramine, Glipizide) were added to the wells of 0-min plate and then 90 μL of plasma was added. For the time points (0, 5, 15, 30, 45, 60 min), 90 μL of pre-warmed plasma was added to start timing. At 5, 15, 30, 45, 60 min, 400 μL of acetonitrile containing internal standard (Imipramine, Glipizide) were added to the wells of corresponding plates, respectively, to stop the reaction. […] Data was analysed with Microsoft Excel."}}, "data": [{"smiles": "CC[C@@H](C(=O)OCCOCCOCCOCC(=O)N[C@H](C(=O)N1C[C@H](O)C[C@H]1C(=O)NCc1ccc(-c2scnc2C)cc1)C(C)(C)C)[C@@H]1N=C(c2ccc(Cl)cc2)c2c(sc(C)c2C)-n2c(C)nnc21", "note": "(single isomer, unassigned) [AGB1 (46)]", "values": [{"measurement": "Dmax", "setting": "[1]", "result": "> 95", "unit": "%"}, {"measurement": "pDC50", "setting": "[1]; BromoTag'ed BRD4, N-term tag", "result": 7.9}, {"measurement": "plasma stability, levels remaining", "setting": "[2]", "result": "no significant changes"}]}]}
